Patent US11220491B2, “Photoprotective compositions containing Malassezia-derived compounds and/or chemical analogs thereof” (Versicolor Technologies, LLC, priority 2018, dated 2022)
Read-outs that look alike come from different tables or passages of the source.

Columns and labels:
[1] = system: MeWo cells; test: CellTiter-Glo cell viability assay (Example 9); type: cell-based; conditions: 100, 10, 1 μM; 6, 24, 48, 72 hours
Procedure: (§1) CellTiter-Glo® 2.0 assay was purchased from Promega. Cell seeding, preparation of the compound source plate, and exposure of cells to test compounds were performed as described in Example 8.
(§2) CellTiter-Glo® reagents were thawed and equilibrated to room temperature before the experiment. 40 μL of CellTiter-Glo® reagent was then added to each well for detection (at 1:1 ratio to culture medium). The plates were then incubated at room temperature for 30 minutes and read using EnSpire (PerkinElmer) plate reader. The remaining activity was calculated according to the following formula: Remaining Activity (%)=100%×(Lumsample−Lumbkg)/(Lumvehicle−Lumbkg).

[2] = system: WM115 cells; test: CellTiter-Glo cell viability assay (Example 9); type: cell-based; conditions: 100, 10, 1 μM; 6, 24, 48, 72 hours
Procedure: as §1, §2

[3] = system: WM115 cells; test: Cell morphology after treatment (Example 6); type: cell-based; conditions: 100 μM, 6 hours
[4] = target: T1, arylhydrocarbon receptor (AhR) (Homo sapiens, UniProt P35869); test: HepG2-AhR-Luciferase assay; conditions: EC50 (uM), 24 hours of treatment
T1 sequence (P35869 11-848): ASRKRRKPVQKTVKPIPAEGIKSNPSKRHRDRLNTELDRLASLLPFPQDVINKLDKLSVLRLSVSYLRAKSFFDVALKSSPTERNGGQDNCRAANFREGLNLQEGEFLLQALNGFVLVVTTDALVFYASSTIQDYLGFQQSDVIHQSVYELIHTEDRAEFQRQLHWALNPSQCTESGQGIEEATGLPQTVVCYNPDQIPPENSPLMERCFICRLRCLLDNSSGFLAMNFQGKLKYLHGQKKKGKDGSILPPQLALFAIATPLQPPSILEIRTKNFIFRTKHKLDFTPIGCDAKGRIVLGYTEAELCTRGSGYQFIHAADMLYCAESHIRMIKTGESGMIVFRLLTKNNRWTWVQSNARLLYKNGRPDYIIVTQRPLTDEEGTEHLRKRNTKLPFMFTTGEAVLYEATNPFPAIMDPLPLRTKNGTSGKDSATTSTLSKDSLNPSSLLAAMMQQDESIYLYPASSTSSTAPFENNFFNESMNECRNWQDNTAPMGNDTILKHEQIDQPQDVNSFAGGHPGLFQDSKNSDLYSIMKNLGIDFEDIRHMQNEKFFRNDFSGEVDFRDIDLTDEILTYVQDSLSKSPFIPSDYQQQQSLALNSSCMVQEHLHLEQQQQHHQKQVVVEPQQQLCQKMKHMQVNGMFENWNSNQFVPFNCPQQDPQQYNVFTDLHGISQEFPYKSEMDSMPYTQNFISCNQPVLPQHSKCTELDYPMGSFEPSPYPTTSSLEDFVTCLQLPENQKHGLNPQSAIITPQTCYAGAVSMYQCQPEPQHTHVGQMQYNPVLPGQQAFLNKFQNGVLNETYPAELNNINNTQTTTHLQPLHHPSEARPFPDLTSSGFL

[5] = system: WM115 cells; test: Annexin V assay, additional evaluation (Example 8); type: cell-based; conditions: 100, 10, 1 μM; 6, 24, 48, 72 hours
Procedure: (§3) To further investigate the impact of test compounds on apoptosis, multiple readouts, covering different stages of apoptosis, were carried out on both MeWo and WM115 cells. Both cell types were treated with test compounds at 3 doses (100 μM, 10 μM, and 1 μM). Staurosporine was used as a positive control. […] The test compounds evaluated were CV-8684. CV-8685, and CV-8688.
(§4) Cell seeding was performed as discussed above with the following exceptions: the final cell density was 4,000 cells/well for 6-hour and 24-hour detections, whereas 2,000 cells/well were used for 48-hour and 72-hour detections. For each time point. 384-well clear bottom plates (Corning 3712) and solid white bottom plates (Corning 3570) were prepared. The plates were incubated as discussed above.
(§5) For preparation of the compound source plate, each test compound was dissolved in DMSO to 10 mM stock. Two additional concentrations were generations by 10-fold dilution to 1 mM and 0.1 mM. Staurosporine was used as positive control and 1% DMSO was employed as vehicle (negative) control. The compound source plate was spun at room temperature at 1,000 RPM for 1 minute and agitated using a plate shaker for 2 minutes.
(§6) 400 nL of test compound was transferred from the compound source plate to 384-well culture plates using Echo550 liquid handler. After 6, 24, 48, and 72 hours, the plates were removed from the incubator for detections.
(§7) Culture media was removed and cells were washed twice with PBS. 20 μL of pre-mixed annexin V-FITC working solution was added to each well. The cells were incubated at room temperature for 20 minutes. Plates were read using Acumen eX3 to count the number of FITC-positive cells. The relative activity was calculated according to the following formula: Relative Activity (%)=100%×(Countsample/Countvehicle).

[6] = system: MeWo cells; test: Annexin V assay, additional evaluation (Example 8); type: cell-based; conditions: 100, 10, 1 μM; 6, 24, 48, 72 hours
Procedure: as §3, §4, §5, §6, §7

[7] = system: MeWo cells; test: Cell morphology after treatment (Example 6); type: cell-based; conditions: 100 μM, 6 hours
[8] = system: WM115 cells; test: Lactate dehydrogenase (LDH) release assay (Example 10); type: cell-based; conditions: 100, 10, 1 μM; 6, 24, 48, 72 hours
Procedure: (§8) The LDH assay quantitatively measures lactate dehydrogenase (“LDH”) released into the media from damaged cells as a biomarker for cytotoxicity and cytolysis.
(§9) CytoTox-ONE™ Homogenous Membrane Integrity Assay was purchased from Promega. Cell seeding, preparation of the compound source plate, and exposure of cells to test compounds were performed as described in Example 8.
(§10) Plates were then centrifuged at 1,000 RPM for 1 minute. 20 μL of cell culture medium was transferred into a new 384-well black solid plate. Then, 20 μL of CytoTOX-ONE™ was added into each well and incubated at room temperature for 10 minutes. Afterward, 10 μL of stop solution were added to each well, and the plates were agitated at 500 rpm for 1 minute. Plates were read using an excitation wavelength of 560 nm and an emission wavelength of 590 nm on EnSpire. The relative activity was calculated according to the following formula: Relative Activity (%)=100%×(Lumsample−Lumbkg)/(Lumvehicle−Lumbkg).

[9] = system: MeWo cells; test: as above; type: cell-based; conditions: 100, 10, 1 μM; 6, 24, 48, 72 hours
Procedure: as §8, §9, §10

[10] = system: MeWo cells; test: Preliminary annexin V-FITC assay (Example 7); type: cell-based; conditions: 6-hour treatment
Procedure: MeWo (ATCC® HTB-65™) and WM115 (ATCC® CRL-1675) cells were purchased from ATCC (Manassas, Va.) and maintained in the following: for MeWo:DMEM supplemented with 10% FBS; for WM115: RPMI 1640 supplemented with 10% FBS (10% FBS, 1% stabilized antibiotic anti-mycotic solution).
During the first set of studies, both MeWo and WM115 cells were treated with test compounds at 10 doses starting from 100 μM with 3-fold dilution. Staurosporine was used as positive control. After 6-hour treatment, cell apoptosis was assessed using an annexin V assay. The test compounds evaluated were CV-8684, CV-8685, CV-8686, CV-8687, and CV-8688.
For cell seeding, cells were harvested and the cell number was determined using Countess® cell counter. Cells were then diluted with culture medium to the desired density. 40 μL of cell suspension per well was added to the required number of wells in a 384-well plate (Corning 3712—clear bottom plate). The final cell density was 6,000 cells/well. After plating, the plates were incubated at 37° C., and 5% CO2 overnight.
For preparation of compound source plate, each test compound was dissolved in DMSO to 10 mM stock. 3-fold serial dilution was performed using an EVO200™ liquid handler (TECAN) to generate ten concentrations of test compound. 0.1% DMSO was employed as vehicle (negative) control. The compound source plate was then spun at room temperature at 1,000 RPM for 1 minute and agitated using a plate shaker for 2 minutes.
For compound treatment, 40 nL of compound were transferred from the compound source plate to the 384-well culture plate using liquid handler Echo550 (LabCyte Inc.). After 6-hour incubation, the plates were removed from the incubator for detection.
For the preliminary annexin V assay, the plates were removed from the incubator and allowed to equilibrate at room temperature for 15 minutes. Culture media was then removed. 20 μL of pre-mixed annexin V-FITC and Hoechst33342 dye working solution were added to each well. The cells were then incubated at room temperature for 20 minutes. […] Afterward, the plate was read using an Acumen eX3 plate reader. The relative activity was calculated according to the following formula: Activity (%)=100%×(CountAnnexin V/CountTotal cell), and EC50 was calculated using GraphPad Prism (v. 5.01).

[11] = cited from earlier work
[12] = system: staphylococci; conditions: cited from earlier work
[13] = system: Candida albicans; conditions: cited from earlier work

In the case of O=Cc1c(Cc2c[nH]c3ccccc23)[nH]c2ccccc12 [CV-8684, Malassezin], the “inhibition of cell viability” value [1] is reported as “dose-dependent inhibition of cell viability”, the “inhibition of cell viability” value [2] is reported as “dose-dependent inhibition of cell viability” and the cell morphology [3] is reported as “significantly affected”. For the same compound, the EC50 ([4]; Table 1) was 4.19 µM, the “apoptosis induction (annexin V binding)” value [5] was “induced apoptosis at the highest concentration tested after 6 hours of treatment” and the “apoptosis induction (annexin V binding)” value [6] was “induced apoptosis at the highest concentration tested after 6 hours of treatment”. For the same compound, the cell morphology [7] was “significantly affected”, the LDH release [8] was “did not induce significant release” and the LDH release [9] was “did not induce significant release”.
For c1ccc2c(c1)[nH]c1cc3c(cc12)[nH]c1ccccc13 [CV-8685, indolo[3,2-b] carbazole], the “inhibition of cell viability” value [2] was “inhibitory effect on WM115 cell viability in a dose-dependent manner only after 24-hour treatment”, the cell morphology [3] was “only affect WM115” and the EC50 ([4]; Table 1) was 6.6 µM. For the same compound, the EC50 ([4]; Table 2) was 15.2 µM, the “apoptosis induction (annexin V binding)” value [5] was “showed the induction effect with 24 hours of treatment” and the “apoptosis induction (annexin V binding)” value [6] was 48 hours of treatment appeared to elicit apoptosis. The LDH release [8] was “dose-dependent induction effect on LDH release”.
With CC(c1[nH]c2ccccc2c1C=O)c1c[nH]c2ccccc12 (stereo not shown) [CV-8688] the “inhibition of cell viability” value [1] was “inhibited viability of both cell types in a dose-dependent manner”, the “annexin V staining” value ([10]; preliminary screen) was “markedly increased annexin V staining” and the EC50 ([10]; Homo sapiens, MeWo, 10 doses starting from 100 μM, read-out: EC50 of annexin V staining) was 0.909 µM. For the same compound, the “inhibition of cell viability” value [2] was “inhibited viability of both cell types in a dose-dependent manner”, the cell morphology [3] was “significantly affected” and the EC50 ([4]; Table 1) was 19.9 µM. For the same compound, the “apoptosis induction (annexin V binding)” value [5] was “showed the induction effect within 6 hours of treatment in a dose-dependent manner”, the “apoptosis induction (annexin V binding)” value [6] was “showed the induction effect within 6 hours of treatment in a dose-dependent manner” and the cell morphology [7] was “significantly affected”. For the same compound, the LDH release [8] was “induced LDH release at the highest concentration tested” and the LDH release [9] was “induced LDH release at the highest concentration tested”.
For Pityriacitrin, the SPF ([11]; 1.25% cream) is listed as 1.4, the SPF ([11]; 2.5% cream) is listed as 1.5 and the SPF ([11]; 5% cream) is listed as 1.7. For the same compound, the UV-protective effect [12] was “UV-protective effect”, the toxicity [12] was “no toxicity” and the UV-protective effect [13] was “UV-protective effect”. The toxicity [13] was “no toxicity”.
